Target: Excitatory amino acid transporter 1 (Homo sapiens, UniProt P43003)
Experiment: Substrate uptake by the Excitatory Amino Acid Transporter 1 (EAAT1, SLC1A3) as assessed by the fluorescent FLIPR membrane potential dye in HEK-293 JumpIN-SLC1A3 cells (PubChem AID: 1745864)
Assay type: functional, cell-based, HEK293

Chain of Excitatory amino acid transporter 1 (P43003 whole entry): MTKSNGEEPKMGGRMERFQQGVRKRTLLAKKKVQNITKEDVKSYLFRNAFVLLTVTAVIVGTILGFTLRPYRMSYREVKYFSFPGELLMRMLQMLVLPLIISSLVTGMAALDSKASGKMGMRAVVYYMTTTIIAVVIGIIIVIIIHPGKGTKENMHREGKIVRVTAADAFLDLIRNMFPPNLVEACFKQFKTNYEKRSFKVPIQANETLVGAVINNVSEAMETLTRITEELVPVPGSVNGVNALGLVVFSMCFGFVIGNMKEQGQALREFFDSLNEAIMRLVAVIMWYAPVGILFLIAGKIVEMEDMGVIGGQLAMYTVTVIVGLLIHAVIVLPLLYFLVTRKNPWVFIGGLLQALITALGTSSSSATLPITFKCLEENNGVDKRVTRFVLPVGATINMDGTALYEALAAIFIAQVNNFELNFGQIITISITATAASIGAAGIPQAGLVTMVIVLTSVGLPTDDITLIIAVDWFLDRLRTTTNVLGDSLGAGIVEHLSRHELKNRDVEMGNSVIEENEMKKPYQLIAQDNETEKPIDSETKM

Row | EC50 | Structure (SMILES)
1 | 376 µM | N[C@@H](CS)C(=O)O [CYSTEINE]
2 | 16 µM | N[C@@H](CCC(=O)O)C(=O)O [GLUTAMIC ACID]
